Results taken from PubChem BioAssay AID179 (DTP/NCI, 2004).
Calls of active or inactive are those of the source.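 The calls were made as follows: active = compounds giving half or more protection of infected cells from virus-caused growth loss, again on retest; inactive = the rest.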

Test system: CEM cells HIV-1 protection, formazan growth assay
Test: NCI AIDS Antiviral Assay
Conditions: for IC50: measured here: growth of uninfected CEM cells
How it was run: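 Protection of CEM cells against HIV-1 was scored from cell growth (soluble formazan) across five concentrations, with parallel uninfected cells. Lack of protection may reflect toxicity.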

Row | Structure (SMILES) | EC50 [µM] | IC50 [µM] | outcome
1 | CCOC(=O)C(=Cc1ccc(-c2ccccc2)cc1)C(=O)OCC | > 16.2 | 10.5 | –
2 | COc1cc2[nH]ncc(=S)c2cc1OC | 61.7 | 219 | –
3 | O=C(O)CSCC(=O)Nc1ccc2cccc3c2c1CC3 | – | – | inactive
4 | O=C1C(NS(=O)(=O)c2ccccc2)=C(n2ccnc2)C(=O)c2ccccc21 | > 200 | 91.2 | –
5 | CC(C)(Oc1ccc(Cl)cc1)C(=O)N(C(=O)N1CCCCC1)c1ccccc1 | > 200 | 13.2 | –
6 | c1csc(-c2cscc2-c2ccsc2)c1 | > 200 | 38.9 | –
7 | c1ccc2c3ccn4ccc5c6ccccc6[nH]c5c4c-3nc2c1 | > 10 | 0.513 | –
8 | CN(C)c1ccc(/C=C(\C#N)c2ccccc2Br)cc1 | > 40.7 | 3.98 | –
9 | N#CCc1nc2ccccc2c(=O)[nH]1 | 17.8 | 69.2 | –
10 | COc1cc2nncc(SCc3ccccc3Cl)c2cc1OC | 1.45 | 51.3 | –
11 | CC1(C)C=C(S(=O)(=O)c2ccccc2)Oc2ccccc2O1 | > 200 | 132 | –
12 | C=C1C(=O)C23C(O)C1CC[C@H]2C12CCCC(C)(COC(C)=O)[C@H]1[C@H](O)[C@]3(O)OC2 (stereo not given in full) | > 324 | 0.398 | –
13 | Nc1ncnc2c1sc1nc3ccccc3n12 | > 200 | > 200 | –
14 | N#Cc1ccc(SSc2ccc(C#N)cc2)cc1 | > 200 | 9.55 | –
15 | COC(=O)C(=O)C(C(=O)OC)C(=O)C(=O)Nc1cc(Cl)c(C)cc1S(=O)(=O)O (stereo not given) | > 575 | > 575 | –
16 | N#CN=C(N(Cc1ccccc1)Cc1ccccc1)N(Cc1ccccc1)Cc1ccccc1 | > 39.8 | > 39.8 | –
17 | COC(=O)C12CCC(C(=O)OC)(Cc3c(c4ccccc4n3S(=O)(=O)c3ccccc3)C1)C2=O (stereo not given) | > 200 | 85.1 | –
18 | CC(C)N(C(=O)C12C3C4C5C3C1(C(=O)N(C(C)C)C(C)C)C5(C#N)C42)C(C)C (stereo not given) | > 93.3 | > 93.3 | –
19 | O=C1C=C(c2ccccc2)C(c2ccccc2)C1O (stereo not given) | > 200 | 135 | –
20 | N#Cc1c(N2CCCC2)ncn(Cc2ccccc2)c1=S | > 200 | > 200 | –
21 | Cc1cc(O)c2c(c1)C(C1OC(CO)C(O)C(O)C1O)c1cc(O)cc(O)c1C2=O (stereo not given) | > 200 | > 200 | –
22 | C=CCOC(=O)Cn1cnc2c(N)ncnc21 | > 200 | > 200 | –

Row | Structure (SMILES) | EC50 [µM] | IC50 [µM] | outcome
23 | OCC1OC(n2cnc3c(Cl)ncnc32)C(O)C1O (stereo not given) | – | – | inactive
24 | CCOC(=O)C(=O)Nc1ccccc1C(F)(F)F | > 363 | > 363 | –
25 | O=CC(NC(=O)N(CCCl)N=O)C(O)C(O)C(O)CO (stereo not given) | > 398 | > 398 | –
26 | Clc1cc(Cl)c2nncc(N3CC3)c2c1 | – | – | inactive
27 | C=CC1CN(C(=O)OCC)N(C(=O)OCC)C1CCc1ccccc1 (stereo not given) | > 200 | 72.4 | –
28 | CC(=O)OC1CSS(=O)CC1OC(C)=O (stereo not given) | > 513 | 22.9 | –
29 | O=C1CCCC2=C1CC1=C(CCCC1=O)N2c1ccc(-c2ccccc2)cc1 | – | – | inactive
30 | O=C1CC2CC(=O)CC2(C2CC=CC2)C1 (stereo not given) | > 245 | > 245 | –
31 | Nc1ccc(N=Nc2ccc(C(=O)O)cc2)c(N)c1N=Nc1ccc(N=Nc2ccc(O)c(C(=O)O)c2)cc1 | 49 | > 100 | –
32 | Cc1c([N+](=O)[O-])c(=O)oc2ccc3c(=O)ccoc3c12 | > 50.1 | 8.71 | –
33 | Cc1cc(S(=O)(=O)Nc2nnc3c4scc(C)c4ncn23)c(S)cc1Cl | 45.7 | 50.1 | –
34 | Cc1cc(C)c(O)c(CN2CCN(C(C)C)CCN(C(C)C)CC2)c1 | > 47.9 | 13.8 | –
35 | COc1cccc(C2c3cc4c(cc3OC(NNC(N)=O)C2C)OCO4)c1OC (stereo not given) | > 200 | 8.13 | –
36 | CCOC1N=C(c2ccccc2)c2cc(Cl)ccc2NC1=O (stereo not given) | > 22.9 | > 22.9 | –
37 | CC(=O)/C=C/c1ccc(C)cc1 | > 63.1 | > 63.1 | –
38 | Cc1cccc(/C=N/NC(=S)NCc2ccccn2)n1 | > 200 | 29.5 | –
39 | CCOC(=O)C1=C(C)N(C2OC(COC(=O)c3ccccc3)C(OC(=O)c3ccccc3)C2OC(=O)c2ccccc2)C(=S)NC1c1ccccc1 (stereo not given) | > 50.1 | > 50.1 | –
40 | O=C1CCc2cc3c(cc21)C(C(=O)O)CC3 (stereo not given) | > 200 | > 200 | –
41 | COc1ccc(/C(Cl)=C/c2cc(OC)ccc2OC)cc1 | > 200 | 13.5 | –
42 | Cc1cccc2c1Sc1ccccc1C2NC(=O)CN(C)C (stereo not given) | > 417 | 102 | –
43 | O=C(CN1CCN(C(=O)OCc2ccccc2)CCN(CC(=O)N2CCCCC2)CCN(C(=O)OCc2ccccc2)CC1)N1CCCCC1 | > 200 | 10.2 | –
44 | CCSc1ccc(/C=C(\C#N)c2ccc(OCCN(CC)CC)cc2)cc1 | > 100 | 1.2 | –

Row | Structure (SMILES) | EC50 [µM] | IC50 [µM] | outcome
45 | OCC(O)C(OC1OC(CO)C(O)C(O)C1O)c1nn(-c2ccc(Cl)cc2)c2nc3cc(Cl)c(Cl)cc3nc12 (stereo not given) | – | – | inactive
46 | CN(C)P(CCP(CCP(N(C)C)N(C)C)c1ccccc1)N(C)C | > 617 | > 617 | –
47 | CC(=S)N/C=C(\C#N)S(=O)(=O)c1ccc(C)cc1 | > 200 | > 200 | –
48 | Cn1c(=O)c2c(nc3n(Cc4ccccc4)c(=O)c(NCCBr)cn23)n(C)c1=O | > 126 | 49 | –
49 | O=C1CC(CC(O)C2CCCCC2O)CC(=O)N1 (stereo not given) | > 200 | > 200 | –
50 | Cc1ccc(C)n1-c1ccccc1C1C=Cn2c(=O)nnc3c(OC(C)C)c(OC(C)C)c(O)c1c32 (stereo not given) | > 200 | 25.7 | –
51 | COc1c(OC)c(OC)c2c(c1OC)OC(c1ccc(O)cc1)CC2=O (stereo not given) | > 200 | 28.8 | –
52 | O=C(OCc1ccccc1)C(Cc1ccc(OCc2ccccc2)cn1)NC(=O)C(F)(F)F (stereo not given) | > 200 | 33.1 | –
53 | Nc1nc(N)c2nnsc2n1 | > 200 | > 200 | –
54 | CC1NOC(=O)C1N=Nc1cccc(Cl)c1 (stereo not given) | 5.25 | 30.2 | –
55 | CCCCCCCCCCCCOCCOCCOCCOCCOCCOCC(=O)NC(Cc1ccccc1)C(=O)Oc1ccc([N+](=O)[O-])cc1 (stereo not given) | > 200 | 17.8 | –
56 | CC(=O)Oc1ccc(C[C@H]2COC(=O)[C@@H]2Cc2ccc(OC(C)=O)c(OC(C)=O)c2)cc1OC(C)=O | > 200 | 17.4 | –
57 | Cc1cc(S(=O)(=O)Nc2nc3ccccc3n2-c2ccccc2)c(S)cc1Cl | > 200 | 162 | –
58 | COc1ccc2ccccc2c1CN1CCOCCOCCN(Cc2c(OC)ccc3ccccc23)CCOCCOCC1 | > 8.71 | 4.9 | –
59 | O=C(/C=C\c1cccc(O)c1)/C=C/c1cccc(O)c1 | 107 | 112 | –
60 | CC1=C[C@H]2O[C@@H]3C[C@H]4OC(=O)/C=C\C=C\C(C(C)O)OCC[C@@H](C)[C@H](O)C(=O)OC[C@@]2(CC1)[C@]4(C)[C@]31CO1 (stereo not given in full) | > 0.0479 | 0.000102 | –
61 | O=c1[nH]c(CO)nc(O)c1Cl | > 200 | > 200 | –
62 | CC1=CSC2=NCCN12 | > 200 | > 200 | –
63 | Cc1cc(Cl)ccc1N=C1NC(=O)C(CC(=O)Nc2ccc(Cl)cc2Cl)S1 (stereo not given) | > 407 | 224 | –
64 | CC(=O)Nc1cc(Cl)cc(Cl)c1O | > 200 | 53.7 | –
65 | O=C1NC(=O)C(C(=O)C(=O)Nc2ccc(Cl)cc2Cl)C(=O)N1 | > 275 | > 275 | –
